# Patent publication US4604383A, “Pyrrolidin-2-ones and medicaments containing them” (Societe Anonyme Styled: SANOFI, priority 1983, dated 1986)
# Where two headings read alike, the source gives them in different places.
# How the values were obtained:
# [1] = Effect on spontaneous motility (Boissier and Simon activity test, actimetric cages); type: in vivo, mouse (CD1 Charles Rivers female mice); conditions: mouse
# Method: The spontaneous motility of the animals was measured by means of the activity test developed by Boissier and Simon, Arch. Int. Pharmacocyn., 1965, 158, 212-221. The equipment is composed of actimetric cages, type Apelab (26×21.5×10 cm), traversed by two light rays which fall on a photoelectric cell. The batches were constituted by CD1 Charles Rivers female mice, of weight comprised between 20 and 24 g. The animals were placed individually in cages 45 minutes after oral administration of the products at the dose of 100 mg/kg. Each traversal by a light beam was counted by an individual counter. The scores corresponding to the movements of the animals were recorded for 10 minutes, and compared with the scores taken on batches of control animals, treated only with the vehicle (5% gum arabic).
# [2] = Potentiation of narcosis with pentobarbital (loss of righting reflex); type: in vivo, mouse (CD1 Charles Rivers mice); conditions: mouse
# Method: For the purpose of evaluating the hypnogenic power of the products, their capacity to potentiate the effects of a subnarcotic dose of pentabarbital in the mouse was studied. The batches were constituted by 10 CD1 Charles Rivers mice, of weight comprised between 20 and 24 g.
# The pentobarbital (20 mg/kg, i.p.) was administered 60 minutes after administration of the products. The drowsiness criterion taken was the loss of the righting reflex.
# [3] = Antagonism of the convulsions induced by electric shock; type: in vivo, mouse (CD1 Charles Rivers mice); conditions: mouse, at 200 mg/kg p.os.
# Method: (§1) The anticonvulsant effect of the products in the mouse was evaluated on a model of convulsions caused by electric shock, and on 2 models of convulsions induced by chemical agents: bicuculline and 3-mercaptopropionic acid.
# (§2) The test was slightly modified from that of Swinyard et al., J. Pharm. Exp. Ther., 1952, 106, 319-330 and Asami et al. Arzneim. Forsch., 1974, 24 (1), 1563-1568. The equipment was composed of a Racia shock generator provided with two occular electrodes delivering a current of 60 volts for 0.3 seconds. The batches were constituted by 10 CD1 Charles Rivers mice of weight comprised between 20 and 24 g. The products were administered orally, 60 minutes before the electroshock.
# [4] = Antagonism of convulsions and of mortality caused by bicucullin; type: in vivo, mouse (CD Charles Rivers mice); conditions: mouse
# Method: as §1
# (§3) The batches were constituted by 10 CD Charles Rivers mice of weights comprised between 20 and 22 g. The products were administered orally, 60 minutes before the bicucullin (0.8 mg/kg, i.v.).
# [5] = Antagonism to the convulsions caused by 3-mercaptopropionic acid; type: in vivo, mouse (CD Charles Rivers mice); conditions: mouse, oral, 60 min before 3-mercaptopropionic acid 60 mg/kg s.c.; probit method, confidence limits in parentheses, p <= 0.05; read-out: Median effective dose (ED50) of antagonism to convulsions caused by 3-mercaptopropionic acid
# Method: as §1
# (§4) The batches were constituted by 10 CD Charles Rivers mice of weights comprised between 20 and 22 g. The products were administered orally 60 minutes before the 3-mercaptopropionic acid (60 mg/kg s.c.).
# [6] = Acute toxicity, determination of the lethal dose in the mouse; conditions: in vivo, po, read-out: Percent toxicity (animals which die in 72 hours)
# Method: The toxicity of the products according to the invention was studied: the products were administered orally, to batches of 5 CD Charles Rivers female mice, of weights comprised between 20 and 24 g. The toxicity was noted during the 72 hours which followed the administration of the products.
# The results expressed as a percentage of animals which die in the 72 hours following the oral administration of the products, are noted in the preceding table.
# [7] = Evaluation of the anticonvulsant activity (electric shock, bicucullin and 3-mercaptopropionic acid taken together); type: in vivo; conditions: mouse, oral
# Method: as §1, §2, §3, §4
structure (smiles),measurement,setting,value
"O=C1CCC(Cc2ccccc2)N1 (stereo not drawn) [Compound A, 5-phenylmethyl 2-pyrrolidinone, reference compound]","Locomotor activity, score percent/controls","[1]; 100 mg/kg p.os., 45 min after administration, 10 min recording, * P <= 0.05, ** P <= 0.01",+1.2%
same,Effect on spontaneous motility (in words),[1]; oral dose of 100 mg/kg,does not act on the spontaneous motility
same,Hypnogenic effect / potentiation of narcosis with pentobarbital (in words),[2]; oral,devoid of hyponogenic effect
same,"Potentiation of pentobarbital, percent of animals in narcosis","[2]; products at 100 mg/kg p.os., 60 min before pentobarbital 20 mg/kg i.p.",0%
same,Inhibition of electric shock convulsions,[3],40%
same,Antagonism to bicucullin mortality,[4]; at 200 (mg/kg p.o.),30%
same,Median effective dose (ED50) of the antagonism to the effects of bicucullin: Tonic convulsions,"[4]; oral, 60 min before bicucullin 0.8 mg/kg i.v., probit method, confidence limits in parentheses, p < 0.05",inactive at 200
same,ED50,[5],> 100 mg/kg
same,mortality at 72 h,[6]; 250 mg/kg p.os.,0%
same,mortality at 72 h,[6]; 500 mg/kg p.os.,0%
same,mortality at 72 h,[6]; 1000 mg/kg p.os.,60%
same,Anticonvulsant properties (in words),[7],does not show anticonvulsant properties
